We go through one molecule from EP1285971B1, “Methods for the phenotypic and genotypic assessment of the drug sensitivity of HIV integrase variants” (Tibotec Pharmaceuticals Ltd., priority 2001, dated 2003).

The subject of experiment [1] is patient_146514. Description: microbe, parasite or virus in culture. Conditions: AVE 2, patient_146514, primer set 3. In kind it is cell-based, HIV. The procedure: (§1) The integrase encoding sequence was amplified from either wildtype HIV-1 (IIIB) or NL4.3 virus, or HXB2D site-directed mutant viruses containing mutations in integrase (such as T66I, S153Y, M154I, or combinations thereof) (Hazuda et al., Science 2000, 287, 646-650), or patient samples. Starting from RNA, extracted from virus supernatant or plasma using the QIAamp® viral RNA extraction kit (Qiagen), cDNA was synthesized by reverse transcription (Expand TM reverse transcriptase, 30 min at 42°C) with the primer 3'EGINT10 (SEQ ID NO 11), followed by a nested PCR. The outer PCR was performed with the primers 5'EGINT1 (SEQ ID NO 1) and 3'EGINT10 (SEQ ID NO 11) (ΔR-IN-vif construct) or 5'EGINT3 (SEQ ID NO 4) and 3'EGINT10 (SEQ ID NO 11) (ΔIN construct) (Expand™ High Fidelity PCR system), and 5 µl of the outer product was used for an inner PCR with primers 5'EGINT2 (SEQ ID NO 3) and 3'EGINT11 (SEQ ID NO 12) (ΔR-IN-vif construct) or 5'EGINT4 (SEQ ID NO 5) and 3'EGINT6 (SEQ ID NO 7) (ΔIN construct). In a second protocol the outer primers were identical as described above, the inner primers are 5'EGINT5 (SEQ ID NO 6) and 3'EGINT6 (SEQ ID NO 7). The amplicons can be used for genotyping and phenotyping. Cycling conditions for both PCRs are denaturation for 3 min at 95°C, followed by 30 cycles of 1 min 90°C, 30 sec 55°C, and 2 min 72°C. A final extension was performed at 72°C for 10 min. For recombination, PCR products are purified using the QiaQuick® 96 PCR BioRobot kit (Qiagen), according to the manufacturer's protocol. If the protocol starts from DNA containing the HIV material such as proviral DNA, the reverse transcriptase step is not needed. The nested approach is also not needed when starting from proviral DNA. The obtained amplicons were sequenced using the primers: In_seq1F (SEQ ID NO 17), In_seq2F (SEQ ID NO 18), In_seq3F (SEQ ID NO 19), IN_seq1R (SEQ ID NO 20), IN_seq2R (SEQ ID NO 21), and IN_seq3R (SEQ ID NO 22).
(§2) A ΔR-IN-vif or ΔIN deletion construct was generated by site-directed mutagenesis on the template pSV40HXB2D with the primers MUT-IN1 (SEQ ID NO 13) and MUT-IN2 (ΔR-IN-vif construct) (SEQ ID NO 14) or MUT-IN3 (SEQ ID NO 15) and MUT-IN4 (SEQ ID NO 16) (ΔIN construct) (protocol Site-directed mutagenesis kit, Stratagene). After DpnI digestion for removal of the methylated template DNA, the construct was digested with SmaI and ligated to circulize the plasmid. The plasmid was transformed into competent cells such as Top10 cells, and colonies were screened for the presence of the deletion construct. The IN-deletion construct was checked by sequence analysis with primers 5'EGINT1 (SEQ ID NO 1) or […] and 3'EGINT10 (SEQ ID NO 11) or 3'EGINT11 (SEQ ID NO 12). For use in recombination experiments, large-scale plasmid DNA preparations were linearized by SmaI digestion and recombined with PCR amplified integrase genes from wild type, mutant, or patient viruses. The plasmid containing the integrase deletion (ΔIN) has been deposited pSV40HXB2D-ΔIN. The sequence of said plasmid is 14377 nucleotides long. The ΔR-IN-vif deletion construct is 13975 nucleotides long. The pSV40HXB2D-ΔIN was deposited at the Belgian Coordinated Collections of Micro-Organisms located at the Universiteit Gent - Laboratorium voor Moleculaire Biologie on August 5, 2002 and the accession number is LMBP 4574.
(§3) Recombinant virus was produced by co-transfection by electroporation of the SmaI-linearized IN-deletion construct and the integrase amplicon into MT4 cells or MT4 cells equipped with an LTR driven reporter gene construct. Production of recombinant virus was evaluated by scoring the cytopathogenic effect (CPE) that is induced by HIV-infection of MT4 cells or by the LTR-driven reporter signal induced by HIV infection in MT4 reporter cells.

For experiment [2], the system named is pHXB2D control. Description: Antiviral experiment with control clone, transfected directly without recombination. In kind it is cell-based, HIV. The settings on record: AVE 6, pHXB2D control, no recombination. The procedure:
Recombinant virus was produced by co-transfection by electroporation of the SmaI-linearized IN-deletion construct and the integrase amplicon into MT4 cells or MT4 cells equipped with an LTR driven reporter gene construct. Production of recombinant virus was evaluated by scoring the cytopathogenic effect (CPE) that is induced by HIV-infection of MT4 cells or by the LTR-driven reporter signal induced by HIV infection in MT4 reporter cells. Green fluorescent protein was used as the reporter signal. Viruses are harvested and titrated at maximum CPE. For recombination the deletion construct pSV40HXB2D-ΔIN was used. Recombination experiments were performed with amplicon from wildtype HIV IIIB and NL4.3, and patient sample 146514 generated by both primer sets. For each recombination 2 µg amplicon was co-transfected with 10 µg SmaI-digested pSV40HXB2D-ΔIN by electroporation into MT4-LTR-EGFP cells. Virus stocks were titrated and tested in an antiviral experiment on a reference panel including nucleoside reverse transcriptase inhibitors (NRTI), non- nucleoside reverse transcriptase inhibitors (NNRTI), protein inhibitor (PR), entry and integrase (IN) inhibitors (Table 2). Recombination was checked by nucleic acid sequence analysis using protocols known to the person skilled in the art. Sequencing primers which can be used are In_seq1F (SEQ ID NO 17), In_seq2F (SEQ ID NO 18), In_seq3F (SEQ ID NO 19), IN_seq1R (SEQ ID NO 20), IN_seq2R (SEQ ID NO 21), and IN_seq3R (SEQ ID NO 22). The recombinant virus was evaluated in an anti-viral assay with a panel of reference compounds including nucleoside RT inhibitors (NRTI) Zidovudine (AZT) Lamivudine (3TC), Didanosine (DDI), non-nucleoside RT inhibitors (NNRTI) Nevirapine (NVP), 4-[[6-amino-5-bromo-2-[(4-cyanophenyl)amino]-4-pyrimidinyl]oxy]-3,5-dimethyl-benzonitrile also referred to as compound 1, 4-[[6-amino-5-bromo-2-[(4-cyanophenyl)amino]-4-pyrimidinyl]oxy]-3,5-dimethyl-Benzonitrile, also referred to as compound 2 protease inhibitors (PR) Saquinavir (SQV), Amprenavir (APV), Indinavir (IDV), [[…]-3-[[(4-aminophenyl)sulfonyl](2-methylpropyl)amino]-2-hydroxy-1-(phenylmethyl)-propyl]-, (3R,3aS,6aR)-hexahydrofuro[2,3-b]furan-3-yl ester carbamic acid also referred to as compound 3, entry-inhibitors (Entry)(AMD3100, DS5000, ATA), and integrase inhibitor (IN) 2-(1-methylethyloxy)-α,γ dioxo-5-(phenylmethyl)-benzenebutanoic acid also referred to as compound 4. […] AVE means antiviral experiment. Type means the type of inhibitor investigated. The fold change is the fold change in EC50. WT III B means that a portion of the wild type IIIB strain has been amplified and used in the antiviral experiment, including transfection and generation of recombinant virus. NL 4-3 means the integrase gene of this laboratory strain has been amplified and subsequently used for the antiviral experiment. […] No recombination has been effected using this HIV clone. pHXB2D has been used directly for transfection and antiviral experiment. Primer set 3 consist of outer primers 5'EGINT3 (SEQ ID NO 4) and 3'EGINT10 (SEQ ID NO 11), and inner primers 5'EGINT4 (SEQ ID NO 5) and 3'EGINT6 (SEQ ID NO 7). Primer set 4 consist of outer primers 5'EGINT3 (SEQ ID NO 4) and 3'EGINT10 (SEQ ID NO 11), and inner primers 5'EGINT5 […] and 3'EGINT6 (SEQ ID NO 7). Other suitable integrase inhibitors include L-731,988, diketo-acids and S-1360.

Experiment [3] deals with WT III B. In words: microbe, parasite or virus in culture. In kind it is cell-based, HIV-1. The settings on record: AVE 5, WT III B, primer set 4. The method, then: as §1, §2, §3
Experiment [4] deals with NL 4-3. Description: microbe, parasite or virus in culture. In kind it is cell-based, HIV-1. The settings on record: for fold change: fold change in EC50; for pEC50: read-out: EC 50. The method, then: as §1, §2, §3

Each structure is given as a SMILES string. pEC50: −log10 of the molar value. Read-outs that look alike come from different tables or passages of the source.

Take `CC(C)CN(C[C@@H](O)[C@H](Cc1ccccc1)NC(=O)O[C@H]1CO[C@H]2OCC[C@H]21)S(=O)(=O)c1ccc(N)cc1` [Compound 3, [(11S,2R)-3-[[(4-aminophenyl)sulfonyl](2-methylpropyl)amino]-2-hydroxy-1-(phenylmethyl)-propyl]-, (3R,3aS,6aR)-hexahydrofuro[2,3-b]furan-3-yl ester carbamic acid]: the fold change in experiment [1] (fold change in EC50) is listed as 2,2; in experiment [2] (fold change in EC50), 1,0; in experiment [3] (fold change in EC50) it was 0,9; in experiment [4] (AVE 1, NL 4-3, primer set 3), 0,5; in experiment [4] (AVE 4, NL4-3, primer set 4) it was 1,5. Moreover, the pEC50 was 7.81 in experiment [1] (read-out: EC 50); 8.15 in experiment [2]; 8.20 in experiment [3] (read-out: EC 50); 8.43 in experiment [4] (AVE 1, NL 4-3, primer set 3); 7.96 in experiment [4] (AVE 4, NL4-3, primer set 4).
